Reference: ChEMBL document CHEMBL5614376, “Discovery of MT-1207: A Novel, Potent Multitarget Inhibitor as a Promising Clinical Candidate for the Treatment of Hypertension” (J Med Chem, 2024)
Active and inactive are the calls of the source. The rule behind the calls is not given here.

What was measured:
[1] = AUC (0 to t) in Sprague-Dawley rat at 3 mg/kg, po measured for 24 hrs by UPLC/MS/MS analysis; format: ADME, organism-based; settings: in vivo
[2] = tested on: Rattus norvegicus; test: Effect on postural hypotension in Sprague-Dawley rat assessed as change in systolic blood pressure at 2.5 mg/kg, po treated for >30 mins followed by induction of postural hypotension measured 40 secs after postural change (reference value: 128 +/- 11 mmHg); format: functional; settings: time > 30.67 min, 0.5112 h
[3] = Metabolic stability in human liver microsomes assessed as drug elimination at 10 umol/L incubated for 5 mins in presence of NADPH by LC-MS/MS analysis; format: ADME, Microsome; settings: 10 µM, dose 10 µmol/L
[4] = AUC (0 to t) in female Sprague-Dawley rat at 100 mg/kg, po measured on day 1 by UP/LC/MS/MS analysis; format: ADME, organism-based; settings: in vivo, time 1 day
[5] = Half life in Sprague-Dawley rat at 3 mg/kg, po measured for 24 hrs by UPLC/MS/MS analysis; format: ADME, organism-based; settings: in vivo
[6] = AUC (0 to t) in male Sprague-Dawley rat at 100 mg/kg, po measured on day 1 by UP/LC/MS/MS analysis; format: ADME, organism-based; settings: in vivo, time 1 day
[7] = Toxicity in Sprague-Dawley rat assessed as drug tolerance at 10 to 100 mg/kg, po qd treated for 13 weeks; format: organism-based; settings: in vivo, 2184 h, dose 10-100 mg/kg
[8] = tested on: Rattus norvegicus; test: Effect on postural hypotension in Sprague-Dawley rat assessed as change in systolic blood pressure at 10 mg/kg, po treated for >30 mins followed by induction of postural hypotension measured 20 secs after postural change (reference value: 129 +/- 11 mmHg); format: functional; settings: time > 30.33 min, 0.5055 h
[9] = Plasma protein binding in human at 1 uM incubated for 30 mins; format: ADME, cell-free; settings: read-out: PPB (converted)
[10] = Metabolic stability in human liver microsomes assessed as drug metabolism at 10 umol/L incubated upto 120 mins in presence of NADPH by LC-MS/MS analysis; format: ADME, Microsome; settings: 2 h, 10 µM, dose 10 µmol/L
[11] = Cmax in female Sprague-Dawley rat at 30 mg/kg, po qd treated for 13 weeks consecutively measured after recovery period on day 91 by UP/LC/MS/MS analysis; format: ADME, organism-based; settings: in vivo, time 91 day
[12] = biological target: 5-hydroxytryptamine receptor 2A (Homo sapiens, UniProt P28223); test: Displacement of [3H]Ketanserin from recombinant human 5-HT2A receptor extracted from CHO cell membrane at 100 nM incubated for 60 mins by radioligand binding assay relative to control; format: cell membranes; settings: filed as antagonist
Chain of 5-hydroxytryptamine receptor 2A (P28223 whole entry): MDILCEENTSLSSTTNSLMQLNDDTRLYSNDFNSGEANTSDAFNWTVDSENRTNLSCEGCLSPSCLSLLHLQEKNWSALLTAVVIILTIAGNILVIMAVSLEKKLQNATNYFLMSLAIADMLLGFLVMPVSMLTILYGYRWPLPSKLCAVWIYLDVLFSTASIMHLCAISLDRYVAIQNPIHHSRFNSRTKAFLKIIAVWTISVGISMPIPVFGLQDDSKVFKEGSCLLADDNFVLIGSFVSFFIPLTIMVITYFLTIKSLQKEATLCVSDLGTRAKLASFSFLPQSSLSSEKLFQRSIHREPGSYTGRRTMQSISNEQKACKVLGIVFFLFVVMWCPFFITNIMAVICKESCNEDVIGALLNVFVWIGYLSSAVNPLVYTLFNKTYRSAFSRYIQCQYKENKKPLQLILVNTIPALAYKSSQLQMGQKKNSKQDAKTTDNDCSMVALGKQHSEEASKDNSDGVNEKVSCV

[13] = tested on: Rattus norvegicus; test: Effect on postural hypotension in Sprague-Dawley rat assessed as change in systolic blood pressure at 10 mg/kg, po treated for >30 mins followed by induction of postural hypotension measured 5 secs after postural change (reference value: 126 +/- 12 mmHg); format: functional; settings: time > 30.08 min, 0.5013 h
[14] = Toxicity in Sprague-Dawley rat assessed as body weight anomaly at 10 mg/kg, po qd treated for 13 weeks consecutively measured after 4 week recovery period; format: organism-based; settings: in vivo, 2856 h, time 17 weeks
[15] = Apparent volume of distribution during terminal phase in Sprague-Dawley rat at 3 mg/kg, po measured for 24 hrs by UPLC/MS/MS analysis; format: ADME, organism-based; settings: in vivo, read-out: Vz/F
[16] = Apparent volume of distribution during terminal phase in Sprague-Dawley rat at 1 mg/kg, iv measured for 24 hrs by UPLC/MS/MS analysis; format: ADME, organism-based; settings: in vivo
[17] = Metabolic stability in Beagle dog liver microsomes assessed as compound remaining at 10 umol/L incubated upto 120 mins in presence of NADPH by LC-MS/MS analysis; format: ADME, Canis lupus familiaris, Microsome; settings: dose 10 µmol/L, read-out: Stability
[18] = tested on: Rattus norvegicus; test: Effect on serum creatinine level in 2K2C renovascular hypertensive Sprague-Dawley rat model at 10 mg/kg, po measured after 9 weeks by biochemical analysis; format: functional, organism-based
[19] = tested on: Rattus norvegicus; test: Effect on postural hypotension in Sprague-Dawley rat assessed as change in systolic blood pressure at 2.5 mg/kg, po treated for >30 mins followed by induction of postural hypotension measured 60 secs after postural change (reference value: 127 +/- 10 mmHg); format: functional; settings: time > 31 min
[20] = AUC (0 to t) in male Sprague-Dawley rat at 10 mg/kg, po qd treated for 13 weeks consecutively measured after recovery period on day 91 by UP/LC/MS/MS analysis; format: ADME, organism-based; settings: in vivo, time 91 day
[21] = Metabolic stability in Beagle dog plasma assessed as enzymatic hydrolysis at 50 to 10000 ng/ml incubated upto 120 mins; format: ADME, cell-free, Canis lupus familiaris; settings: 2 h, dose 50-10000 ng/ml
[22] = Metabolic stability in human liver microsomes assessed as compound remaining at 10 umol/L incubated upto 120 mins in presence of NADPH by LC-MS/MS analysis; format: ADME, Microsome; settings: dose 10 µmol/L, read-out: Stability
[23] = Cmax in male Sprague-Dawley rat at 30 mg/kg, po measured on day 1 by UP/LC/MS/MS analysis; format: ADME, organism-based; settings: in vivo, time 1 day
[24] = Apparent volume of distribution during terminal phase in Sprague-Dawley rat at 1 mg/kg, po measured for 24 hrs by UPLC/MS/MS analysis; format: ADME, organism-based; settings: in vivo, read-out: Vz/F
[25] = tested on: Rattus norvegicus; test: Effect on postural hypotension in Sprague-Dawley rat assessed as change in systolic blood pressure at 10 mg/kg, po treated for >30 mins followed by induction of postural hypotension measured 3 secs after postural change (reference value: 124 +/- 10 mmHg); format: functional; settings: time > 30.05 min, 0.5008 h
[26] = Tmax in Sprague-Dawley rat at 1 mg/kg, iv measured for 24 hrs by UPLC/MS/MS analysis; format: ADME, organism-based; settings: in vivo
[27] = Oral bioavailability in Sprague-Dawley rat at 9 mg/kg measured for 24 hrs by UPLC/MS/MS analysis; format: ADME, organism-based; settings: in vivo
[28] = Toxicity in Sprague-Dawley rat assessed as change in body weight at 100 mg/kg, po qd treated for 13 weeks consecutively measured post-cessation of treatment; format: organism-based; settings: in vivo, 2184 h
[29] = tested on: Rattus norvegicus; test: Effect on serum K+ level in 2K2C renovascular hypertensive Sprague-Dawley rat model at 10 mg/kg, po measured after 9 weeks by biochemical analysis; format: functional, organism-based
[30] = Half life in Sprague-Dawley rat at 1 mg/kg, po measured for 24 hrs by UPLC/MS/MS analysis; format: ADME, organism-based; settings: in vivo
[31] = Apparent volume of distribution during terminal phase in Sprague-Dawley rat at 9 mg/kg, po measured for 24 hrs by UPLC/MS/MS analysis; format: ADME, organism-based; settings: in vivo, read-out: Vz/F
[32] = Toxicity in Sprague-Dawley rat at 10 to 100 mg/kg, po qd treated for 13 weeks; format: organism-based; settings: in vivo, dose 10-100 mg/kg
[33] = tested on: Rattus norvegicus; test: Antihypertensive activity in 2K2C renovascular hypertensive Sprague-Dawley rat model assessed as decrease in diastolic blood pressure at 10 mg/kg, po measured after 9 weeks; format: functional, organism-based
[34] = tested on: Rattus norvegicus; test: Effect on serum urea level in 2K2C renovascular hypertensive Sprague-Dawley rat model at 10 mg/kg, po measured after 9 weeks by biochemical analysis; format: functional, organism-based
[35] = Cmax in female Sprague-Dawley rat at 100 mg/kg, po measured on day 1 by UP/LC/MS/MS analysis; format: ADME, organism-based; settings: in vivo, time 1 day

With Cl.c1ccc2c(c1)nnn2CCCCN1CCN(c2nsc3ccccc23)CC1 the AUC(0-t) at 24 h [1] was 421 ng·h/mL, the Activity [2] was 92 mmHg and the Drug excretion [3] was “Active”. It also gave an AUC(0-t) at 24 h [4] of 7910 ng·h/mL, a half-life [5] of 2.15 h and an AUC(0-t) at 24 h [6] of 1460 ng·h/mL. For the same compound, the Activity [7] was “Non-Toxic”, the Activity [8] was 85 mmHg and the fraction unbound at 0.5 h, 1 µM [9] was 0.004. The Drug metabolism [10] was “Metabolite_Detected”, the Cmax [11] was 333 ng/mL and the inhibition [12] was 99%. For the same compound, the Activity [13] was 81 mmHg, the Activity [14] was “Non-Toxic” and the Vd/F [15] was 22.4 L. The Vz/F [16] was 4.5 L, the remaining at 2 h, 10 µM [17] was 6.04% and the Activity [18] was “Active”. For the same compound, the Activity [19] was 93 mmHg, the AUC(0-t) at 2184 h [20] was 112 ng·h/mL and the Stability [21] was “Stable”. It also gave a remaining at 2 h, 10 µM [22] of 23.9%, a Cmax [23] of 109 ng/mL and a Vd/F [24] of 51.5 L. For the same compound, the Activity [25] was 81 mmHg, the Tmax [26] was 0.25 h and the bioavailability [27] was 15.3%. For the same compound, the Activity [28] was “Non-Toxic”, the Activity [29] was “Active” and the half-life [30] was 1.5 h. The Vd/F [31] was 78.9 L, the NOAEL at 2184 h [32] was 100 mg/kg and the Activity [33] was “Active”. The Activity [34] was “Active” and the Cmax [35] was 1080 ng/mL.
